This is an account of results in article PMC6274262, “Synthesis of Novel Symmetrical 1,4-Disubstituted 1,2,3-Bistriazole Derivatives via ‘Click Chemistry’ and Their Biological Evaluation” (Molecules, 2016).

Test [1] concerns S. cerevisiae RSKK 251. The test is described as follows: Agar-well diffusion antimicrobial screening. The test is classed as cell-based, Saccharomyces cerevisiae. A general note: A growth-free zone around the sample is the usual read-out of agar diffusion tests.
Test [2] concerns E. coli ATCC 35218. The test is described as follows: Agar-well diffusion antimicrobial screening. The test is classed as cell-based. To be noted: Escherichia coli, ATCC35218, 18 h, read-out: Inhibition Zone Ec.
Test [3] relates to Y. pseudotuberculosis ATCC 911. The test is described as follows: microbe, parasite or virus in culture. The test is classed as cell-based. Conditions: Yersinia pseudotuberculosis, ATCC911, 18 h, read-out: Inhibition Zone Yp.
Test [4] has as its system P. aeruginosa ATCC 10145. The test is described as follows: Agar-well diffusion antimicrobial screening. The test is classed as cell-based. Conditions: Pseudomonas aeruginosa, ATCC10145; 50 μL of DMSO stock (concentration in c1) per 5 mm well, 18 h at 35 °C; standard ampicillin 10 μg; read-out: Inhibition Zone Pa.
Test [5] has as its system S. aureus ATCC 25923. As to the kind of experiment: Agar-well diffusion antimicrobial screening. The test is classed as cell-based. Conditions: Staphylococcus aureus, ATCC25923; 50 μL of DMSO stock (concentration in c1) per 5 mm well, 18 h at 35 °C; standard ampicillin 10 μg; read-out: Inhibition Zone Sa.
Test [6] has as its system E. faecalis ATCC 29212. As to the kind of experiment: Agar-well diffusion antimicrobial screening. The test is classed as cell-based. Conditions: Enterococcus faecalis, ATCC29212; 50 μL of DMSO stock (concentration in c1) per 5 mm well, 18 h at 35 °C; standard ampicillin 10 μg; read-out: Inhibition Zone Ef.
The subject of test [7] is B. cereus 709 Roma. The test is described as follows: Agar-well diffusion antimicrobial screening. The test is classed as cell-based. Conditions: Bacillus cereus, 50 μL of DMSO stock (concentration in c1) per 5 mm well, 18 h at 35 °C, standard ampicillin 10 μg, read-out: Inhibition Zone Bc.
The target in test [8] is T1, Electric eel acetyl-cholinesterase enzyme (AchE, Type-VI-S; EC 3.1.1.7) (Electrophorus electricus, UniProt O42275).
T1 construct: purchased Sigma-Aldrich Type-VI-S
As to the kind of experiment: biochemical. To be noted: mean ± S.D. of three independent experiments; Tris-HCl pH 8.00, 412 nm. Here is the method:
Firstly, all of the compounds stock solution in DMF (1 × 10^−3 M) were prepared and then five different concentrations were prepared from stock solution in buffer (Tris-HCI pH 8.00) for experiments. Briefly 50 µL of 50 mM Tris-HCl buffer (pH 8.00), 125 µL of 3 mM DTNB (in buffer), 25 µL of 0.2 U/mL AChE and 25 µL of sample dissolved in buffer and incubated for 15 min. at 25 °C. Fifteen minutes later, 25 µL of 15 mM acetyl thiocholine iodide were added and incubated 5 min. at room temperature. The reaction was initiated by the addition of acetylcholine iodide. The hydrolysis of this substrate was monitored by the formation of the yellow 5-thio-2-nitrobenzoate anion as a result of the reaction DTNB with thiocholine, catalized by enzyme at a wave length of 412 nm using a 96-well microplate reader (Multiskan Go UV-spectrophotometer, Thermo Fisher Scientific Oy Ratastie 2, Vantaa, Finland).
Inhibition of AChE was calculated by the comparison of reaction rates of the samples relative to the blank sample (DMF in phosphate buffer pH = 8) using the Equation (1) where Acontrol is the activity of enzyme without test sample and Asample is the activity of enzyme with test sample: (1) Scavenging effects (%)=[(Acontrol−Asample)/Acontrol]×100
The experiments were carried out in triplicate and IC50 values were examined.

A short description of test [9]: DPPH radical scavenging assay. Conditions: 0.1 mM methanolic DPPH, 30 min in the dark, 517 nm; mean ± S.D., triplicate. Here is the method:
Some 1,2,3-triazole compounds are known to act either as inhibitors of free radical production or as radical scavengers. Therefore, the potential antioxidant property of the new 1,2,3-trizole compounds was evaluated by determining their DPPH and SOD radical scavenging ability. DPPH is a stable free radical that accepts an electron or hydrogen radical to become a stable species. Due to its odd electron, DPPH gives a strong absorption band at 517 nm. Antioxidants are suitable reducing agents and neutralize the free radicals by pairing the DPPH odd electron with a hydrogen atom, and the DPPH solution turns yellow, observed as the decrease in absorbance at 517 nm.
The compounds were tested for in vitro antioxidant activities by the 2,2-diphenyl-1-picrylhydrazyl (DPPH) free radical scavenging assay method. The total volume of the assay mixtures containing methanolic DPPH solution (0.1 mM) and different concentrations of samples was 1 mL. After incubation in the dark at room temperature for 30 min., absorbance of the samples (Asample) was measured at 517 nm. Assay mixture without compound was used as control (control absorbance, Acontrol). All experiments were carried out in triplicate and results were expressed as the mean ±standard deviation (S.D.). Butylatedhydroxyanisole (BHA) were used as the reference compound. Free radical scavenging effect was calculated using Equation (1).
For orientation: The DPPH test is a chemical assay of radical scavenging.

Test [10] in a line: Superoxide radical scavenging assay (NBT photo reduction method). Conditions: pH 7.8, 30 °C, 10 min, 560 nm, mean ± S.D., triplicate. As for the experimental part: Superoxide scavenging activity of the compounds and reference were tested in a non-enzymatic superoxide radical (O2^−•) generation assay using a modified spectrophotometrical nitro blue tetrazolium (NBT) photo reduction method. The total volume of the assay mixtures containing riboflavin (2 μM), methionine (13 mM), NBT ([…]), EDTA (0.1 mM), and the test samples (50 mM phosphate buffer, pH = 7.8) was 1 mL. After illuminating with a fluorescent lamp at 30 °C for 10 min., the absorbance of the samples (Asample) was measured at 560 nm. Assay mixture without the compound was used as control (control absorbance, Acontrol). All experiments were carried out in triplicate and results were expressed as the mean ± standard deviation (S.D.). Free O2^−• radical scavenging effect was calculated using Equation (1).

Test [11] concerns C. albicans ATCC 60193. The test is described as follows: Agar-well diffusion antimicrobial screening. The test is classed as cell-based, Candida albicans.
Test [12] has as its system M. smegmatis ATCC607. As to the kind of experiment: Agar-well diffusion antimicrobial screening. To be noted: Mycolicibacterium smegmatis, ATCC607, 72 h; 50 μL of DMSO stock (concentration in c1) per 5 mm well, BHI agar, 3 days at 35 °C; standard streptomycin 10 µg; read-out: Inhibition Zone Ms. The test is classed as cell-based, Mycobacterium smegmatis.

T1 sequence (O42275 24-633): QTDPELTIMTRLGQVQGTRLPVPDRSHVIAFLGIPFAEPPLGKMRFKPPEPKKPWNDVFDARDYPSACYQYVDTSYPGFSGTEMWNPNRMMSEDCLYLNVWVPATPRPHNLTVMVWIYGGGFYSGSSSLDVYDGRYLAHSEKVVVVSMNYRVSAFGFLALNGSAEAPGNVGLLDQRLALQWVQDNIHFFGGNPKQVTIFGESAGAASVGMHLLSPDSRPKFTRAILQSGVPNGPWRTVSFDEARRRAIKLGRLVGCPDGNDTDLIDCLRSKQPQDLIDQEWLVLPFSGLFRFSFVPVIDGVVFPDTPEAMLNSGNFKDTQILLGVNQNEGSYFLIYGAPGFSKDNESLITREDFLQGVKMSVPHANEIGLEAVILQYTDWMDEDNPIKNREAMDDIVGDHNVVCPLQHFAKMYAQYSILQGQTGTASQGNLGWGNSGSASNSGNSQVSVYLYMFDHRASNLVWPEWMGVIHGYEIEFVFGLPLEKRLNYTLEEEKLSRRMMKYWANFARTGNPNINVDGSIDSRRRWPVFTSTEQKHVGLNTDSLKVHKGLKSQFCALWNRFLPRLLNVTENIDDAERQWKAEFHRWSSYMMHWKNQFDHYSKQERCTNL

For the compound “4-((1-(10-(4-((4-Formyl-2-methoxyphenoxy)methyl)-1H-1,2,3-triazol-1-yl)decyl)-1H-1,2,3-triazol-4-yl)-methoxy)-2-methoxybenzaldehyde [Compound 5f]”, the “Inhibition Zone Sc” value in test [1] is reported as “-”.

Consider `CC1(C)S[C@@H]2[C@H](NC(=O)[C@H](N)c3ccccc3)C(=O)N2[C@H]1C(=O)O` [Amp, Ampicillin], for which the zone of inhibition at 10 µg/disc in test [2] was 10 mm; in test [3], 10 mm; in test [4] it was 18 mm; in [5], 10 mm; in test [6] it was 35 mm; in test [7] it was 15 mm.

Take `COc1cc(C(C)=O)ccc1OCc1cn(CCCCCCn2cc(COc3ccc(C(C)=O)cc3OC)nn2)nn1` [Compound 3d, 1-(4-((1-(6-(4-((4-Acetyl-2-methoxyphenoxy)methyl)-1H-1,2,3-triazol-1-yl)hexyl)-1H-1,2,3-triazol-4-yl)-methoxy)-2-methoxyphenyl)ethan-1-onen]: in test [8], the IC50 (commonly the concentration that gives 50% inhibition) worked out at 75.7 µM. In addition, the “DPPH IC50” value in test [9] is 149.21 (±0.06) µg/mL. Also, the “SOD IC50” value in test [10] is 128.24 (±0.10) µg/mL. Moreover, the “Inhibition Zone Sc” value in [1] is on record as “-”.

`O=Cc1ccc(OCc2cn(CCCCCCCCn3cc(COc4ccc(C=O)cc4)nn3)nn2)cc1` [Compound 4e, 4,4′-(((Octane-1,8-diylbis(1H-1,2,3-triazole-1,4-diyl))bis(methylene))bis(oxy))dibenzaldehyde]: the IC50 in test [8] is 63.4 µM. Further, the “DPPH IC50” value in test [9] is listed as 192.04 (±0.09) µg/mL. Besides, the “SOD IC50” value in test [10] was 88.86 (±0.09) µg/mL. Moreover, in test [11], the “Inhibition Zone Ca” value came out at 6 mm.

As to `OC(Cn1cncn1)(Cn1cncn1)c1ccc(F)cc1F` [Flu., Fluconazole, reference compound], the zone of inhibition at 5 µg/disc in [11] (Candida albicans, ATCC60193, 18 h, read-out: Inhibition Zone Ca) was 25 mm; in test [1] (Saccharomyces cerevisiae, RSKK251, 50 μL of DMSO stock (concentration in c1) per 5 mm well, 18 h at 35 °C, standard fluconazole 5 μg, read-out: Inhibition Zone Sc) it was 25 mm.

`[H]/N=C(/N)N[C@H]1[C@H](O)[C@@H](O)[C@H](O[C@@H]2O[C@@H](C)[C@](O)(C=O)[C@H]2O[C@@H]2O[C@@H](CO)[C@H](O)[C@@H](O)[C@@H]2NC)[C@@H](N/C(N)=N\[H])[C@@H]1O` [Strep, Streptomycin]: the zone of inhibition at 10 µg/disc in test [12] worked out at 35 mm.
